This is an account of results in US9796753B2, “N-substituted indenoisoquinolines and syntheses thereof” (Purdue Research Foundation, priority 2005, dated 2017).

Common to all, as to format: cell-based
Data set [1] has as its system CNS SF-539. Description: COMPARE screening (NCI human cancer cell line screen), cytotoxicity GI50. Here is the method:
(§1) Selected compounds were tested for antiproliferative activity in the National Cancer Institute's developmental therapeutics assay 60 cell line screen (NCI60). The cells were incubated with the tested compounds at 100, 10, 1, 0.1, and 0.01 μM concentrations for 48 h before treatment with sulforhodamine B dye. Optical densities were recorded, and their ratios relative to that of the control were plotted as percentage growth against the log 10 of the tested compound concentrations.

Data set [2] concerns colon HCT-116. The description is as above. The method, then: as §1
The subject of data set [3] is melanoma UACC-62. The description is as above. Here is the method: as §1
In data set [4] the test system is ovarian OVCAR-3. The description is as above. The method, then:
as §1

Data set [5] concerns prostate DU-145. The data set is described as above. Here is the method:
as §1

The subject of data set [6] is renal SN12C. The data set is described as above. The method, then: as §1
The test system of data set [7] is breast MDA-MB-435. Described as above.
Data set [8] has as its system all human cancer cell lines successfully tested. Put plainly: NCI screen mean graph midpoint (MGM) for growth inhibition. The method, then:
COMPARE screening. The compounds described herein were examined for antiproliferative activity against the human cancer cell lines in the National Cancer Institute screen (COMPARE screening), in which the activity of each compound was evaluated with approximately 55 different cancer cell lines of diverse tumor origins. […] Therefore, the MGM value represents an overall assessment of toxicity of the compound across numerous cell lines.
as §1
The cytotoxicities of the compounds to cultured cancer cells were measured in the National Cancer Institute's 60 cell line assay (a.k.a. NCI-60).

Data set [9] has as its system lung HOP-62. Put plainly: COMPARE screening (NCI human cancer cell line screen), cytotoxicity GI50. The method, then: as §1
Setting [10] is: Homo sapiens, CNSSF-539, read-out: cytotoxicity (GI50) CNS SF-539.
[11] abbreviates: Homo sapiens, HCT-116, read-out: cytotoxicity (GI50) colon HCT-116.
The mark [12] stands for this setting: Homo sapiens, UACC-62, read-out: cytotoxicity (GI50) melanoma UACC-62.
Setting [13] is: Homo sapiens, OVCAR-3, read-out: cytotoxicity (GI50) ovarian OVCAR-3.
The mark [14] stands for this setting: Homo sapiens, DU-145, read-out: cytotoxicity (GI50) prostate DU-145.
Where [15] appears, read: Homo sapiens, SN12C, read-out: cytotoxicity (GI50) renal SN12C.
Setting [16] is: Homo sapiens, MDA-MB-435, read-out: cytotoxicity (GI50) breast MDA-MB-435.
The mark [17] stands for this setting: Table 1, average GI50 of all cell lines tested (approximately 55), test range 10^−8 to 10^−4 molar.
The mark [18] stands for this setting: all human cancer cell lines successfully tested.

Like-named read-outs stand apart in the source and are kept apart here. Some results are limits rather than exact numbers.

Take `COc1cc2c3c(oc(=O)c2cc1OC)-c1ccccc1C3=O` [Compound 4a, 2,3-dimethoxybenz[d]indeno[1,2-b]pyran-5,11-dione]: the GI50 in [1] (setting [10]), in data set [2] (setting [11]), in [3] (setting [12]), in data set [4] (setting [13]), in data set [5] (setting [14]) and in [6] (setting [15]) was no less than 100 µM in each case. Besides, the 50% growth inhibitory concentration (GI50) in data set [7] (setting [16]) is no less than 100 µM. This compound also yielded an MGM (mean GI50 across cell lines) in data set [8] (Homo sapiens) of no less than 100 µM.
`COc1cc2c3c(n(CCCN(C)C)c(=O)c2cc1OC)-c1ccccc1C3=O` [Compound 5a]: the GI50 in data set [1] is 6.17 µM; in [2] it was 2.45 µM; in [3], 6.61 µM; in data set [4], 5.89 µM; in data set [5] it was 4.47 µM; in data set [6] it was 11 µM. The compound also registered a 50% growth inhibitory concentration (GI50) in data set [7] of 7.08 µM. This compound also returned an MGM (mean GI50 across cell lines) in data set [8] (setting [17]) of 6.17 µM.
`CC(C)(C)OC(=O)NCCCCCCCn1c2c(c3ccccc3c1=O)C(=O)c1ccccc1-2` [Compound 5af, 6-(7′-tert-BOC-Aminoheptyl)-5,6-dihydro-5,11-dioxo-11H-indeno[1,2-c]isoquinoline]: the 50% growth inhibitory concentration (GI50) in [1] was found to be 20.9 µM; in data set [2], 17.4 µM; in data set [3], 20 µM; in data set [4] it was 33.9 µM; in [5], 31.6 µM; in [6] it was 74.1 µM. In data set [7], this compound had a GI50 of 81.3 µM. For the same compound, the MGM (mean GI50 across cell lines) in [8] (setting [17]) is 30.9 µM.
For `O=C1c2ccccc2-c2c1c1ccc([N+](=O)[O-])cc1c(=O)n2CCCBr` [Compound 5bb, 6-(3-Bromopropyl)-5,6-dihydro-5,11-dioxo-3-nitro-11H-indeno[1,2-c]isoquinoline], the GI50 was greater than 100 µM in [1] (setting [10]); 3.47 µM in data set [2] (setting [11]); greater than 100 µM in [3] (setting [12]); greater than 100 µM in data set [4] (setting [13]); greater than 100 µM in [5] (setting [14]); greater than 100 µM in data set [6] (setting [15]). Further, in data set [7] (setting [16]), the concentration for 50% growth inhibition (GI50) was greater than 100 µM. The compound also yielded an MGM (mean GI50 across cell lines) in [8] (setting [17]) of 40.0 µM.
As to `[N-]=[N+]=NCCCn1c2c(c3ccccc3c1=O)C(=O)c1ccccc1-2` [Compound 5bh], the 50% growth inhibitory concentration (GI50) in data set [2] worked out at 4.9 µM; in [9], 7.59 µM; in data set [3], 19.5 µM; in data set [4], 7.94 µM; in data set [5], 29.5 µM; in [6], 25.1 µM. The 50% growth inhibitory concentration (GI50) in data set [7] came to 7.76 µM. Besides, the MGM (mean GI50 across cell lines) in data set [8] (setting [17]) amounted to 12.3 µM.
Take `COc1ccc2c(c1)C(=O)c1c-2n(CCCN2CCOCC2)c(=O)c2cc([N+](=O)[O-])ccc12` [Compound 5bj]: the GI50 in data set [2], in [9], in data set [3], in data set [4], in data set [6] and in [7] was less than 0.01 µM each time. Moreover, in data set [8] (setting [17]), the “MGM (mean graph midpoint for growth inhibition)” value was found to be 0.014 ± 0.001 µM.
On to `CN(C)CCCn1c2c(c3ccc([N+](=O)[O-])cc3c1=O)C(=O)c1ccccc1-2` [Compound 5c], for which the concentration for 50% growth inhibition (GI50) in data set [2] was 6.46 µM; in data set [3] it was 7.08 µM; in [4] it was 25.7 µM; in data set [6], 4.17 µM; in data set [7], greater than 100 µM. This compound also registered an MGM (mean GI50 across cell lines) in data set [8] (setting [17]) of 9.77 µM.
Regarding `CN(C)CCCn1c2c(c3ccccc3c1=O)C(=O)c1ccccc1-2` [Compound 5d], the GI50 turned out to be 0.58 µM in [2]; 0.51 µM in data set [3]; 1.7 µM in data set [4]; 1.32 µM in data set [5]; 0.91 µM in [6]; 2.82 µM in data set [7].
For the compound `O=C1c2ccccc2-c2c1c1ccccc1c(=O)n2CCCn1ccnc1` [Compound 5g], the 50% growth inhibitory concentration (GI50) in [1] is 2.34 µM; in data set [2], 1.41 µM; in data set [3] it was 0.79 µM; in [4], 1.66 µM; in data set [5], 1.41 µM; in [6] it was 1.66 µM. Further, the MGM (mean GI50 across cell lines) in data set [8] (setting [17]) was found to be 1.86 µM.
With `O=C1c2ccccc2-c2c1c1ccc([N+](=O)[O-])cc1c(=O)n2CCN1CCOCC1` [Compound 5i, 5,6-Dihydro-6-(2-morpholin-4-yl-1-ethyl)-3-nitro-5,11-dioxo-11H-indeno[1,2-c]isoquinoline], the GI50 in [2] (setting [11]) was greater than 100 µM; in data set [9] (Homo sapiens, HOP-62, read-out: cytotoxicity (GI50) lung HOP-62), 52.5 µM; in data set [3] (setting [12]) it was 83.2 µM; in data set [4] (setting [13]) it was greater than 100 µM; in data set [5] (setting [14]), 61.7 µM; in [6] (setting [15]), 58.9 µM. Also, the GI50 in data set [7] (setting [16]) was greater than 100 µM. The compound further displayed an MGM (mean GI50 across cell lines) in [8] (setting [17]) of 74.1 µM.
`COc1cc2c3c(n(CCCn4ccnc4)c(=O)c2cc1OC)-c1cc2c(cc1C3=O)OCO2.Cl` [Compound 5l]: the “MGM (mean graph midpoint for growth inhibition)” value in data set [8] (setting [17]) was 0.079 ± 0.023 µM.
On to `CN(CCCn1c2c(c3ccccc3c1=O)C(=O)c1ccccc1-2)CCCn1c2c(c3ccccc3c1=O)C(=O)c1ccccc1-2` [Compound 12d, Bis{(5,6-dihydro-5,11-diketo-11H-indeno[1,2-c]isoquinoline)-6-propyl}methylamine], for which the GI50 stood at 1.12 µM in data set [1] (CNS SF-539, concentration corresponding to 50% growth inhibition, read-out: cytotoxicity (GI50 in μM) CNS SF-539); 2 µM in data set [3] (melanoma UACC-62, concentration corresponding to 50% growth inhibition, read-out: cytotoxicity (GI50 in μM) melanoma UACC-62); 1.2 µM in data set [4] (ovarian OVCAR-3, concentration corresponding to 50% growth inhibition, read-out: cytotoxicity (GI50 in μM) ovarian OVCAR-3); 0.589 µM in data set [6] (renal SN12C, concentration corresponding to 50% growth inhibition, read-out: cytotoxicity (GI50 in μM) renal SN12C); 1.55 µM in data set [7] (breast MDA-MB-435, concentration corresponding to 50% growth inhibition, read-out: cytotoxicity (GI50 in μM) breast MDA-MB-435). In addition, the “MGM (mean graph midpoint for growth inhibition)” value in data set [8] (setting [18]) was determined as 0.934 ± 0.476 µM.
For the compound `Cl.O=C1c2ccccc2-c2c1c1ccccc1c(=O)n2CCCCNCCCn1c2c(c3ccccc3c1=O)C(=O)c1ccccc1-2` [Compound 14b, Bis{(5,6-dihydro-5,11-diketo-11H-indeno[1,2-c]isoquinoline)}-(6-propyl,6′-butyl)amine Hydrochloride], the GI50 in data set [2] worked out at 0.056 µM; in data set [9], 0.028 µM; in [3], 0.513 µM; in data set [4] it was 0.372 µM; in data set [5], 0.288 µM; in data set [6], 0.132 µM. This compound also yielded a GI50 in [7] of 0.562 µM. In addition, in [8] (setting [18]), the “MGM (mean graph midpoint for growth inhibition)” value was 0.357 ± 0.087 µM.
Regarding `O=C(O)C(F)(F)F.O=C(O)C(F)(F)F.O=C1c2ccccc2-c2c1c1ccccc1c(=O)n2CCNCCNCCn1c2c(c3ccccc3c1=O)C(=O)c1ccccc1-2` [Compound 14c, Bis-1,2-{(5,6-dihydro-5,11-diketo-11H-indeno[1,2-c]isoquinoline)-6-ethylamino}ethane Bis(trifluoroacetate)], the concentration for 50% growth inhibition (GI50) in data set [2] was 0.029 µM; in data set [9], 0.032 µM; in data set [3] it was 0.331 µM; in [4] it was 1.66 µM; in [5], 0.182 µM; in [6] it was 0.178 µM. Further, in [7], the GI50 was found to be 1.66 µM. In data set [8] (setting [18]), the “MGM (mean graph midpoint for growth inhibition)” value is 0.427 ± 0.01 µM.
Regarding `O=C(O)C(F)(F)F.O=C(O)C(F)(F)F.O=C1c2ccccc2-c2c1c1ccccc1c(=O)n2CCCNCCNCCCn1c2c(c3ccccc3c1=O)C(=O)c1ccccc1-2` [Compound 14e, Bis-1,2-{(5,6-dihydro-5,11-diketo-11H-indeno[1,2-c]isoquinoline)-6-propylamino}ethane Bis(trifluoroacetate)], the GI50 in data set [2] is less than 0.01 µM; in data set [9] it was less than 0.01 µM; in [3] it was 0.052 µM; in data set [4] it was 1.02 µM; in [5], less than 0.01 µM; in data set [6] it was less than 0.01 µM. This compound registered a concentration for 50% growth inhibition (GI50) in data set [7] of 0.933 µM. In [8] (setting [18]), the “MGM (mean graph midpoint for growth inhibition)” value came to 0.152 ± 0.062 µM.
`COc1cc2c3c(n(CCCN(CCCN(CCCn4c5c(c6ccccc6c4=O)C(=O)c4ccccc4-5)C(=O)OC(C)(C)C)C(=O)OC(C)(C)C)c(=O)c2cc1OC)-c1cc2c(cc1C3=O)OCO2` [Compound 16a, 1,3-{6-(3-tert-Butyloxycarbonylamino-1-propyl)-5,6-dihydro-2,3-dimethoxy-8,9-methylenedioxy-5,11-dioxo-11H-indeno[1,2-c]isoquinoline}-{5′,6′-dihydro-6′-[(3′-tert-butyloxycarbonylamino)-1′-propyl]-5′,11′-dioxo-11′H-indeno[1,2-c]isoquinoline}propane]: the GI50 in [2], in data set [9], in data set [3], in data set [6] and in data set [7] was greater than 100 µM in each case. Besides, the MGM (mean GI50 across cell lines) in data set [8] (setting [18]) was found to be 68.0 µM.

By GI50 is commonly meant the concentration that inhibits growth by half.
